ChEMBL document CHEMBL4602605, “Fluoroquinolones structural and medicinal developments (2013-2018): Where are we now?” (Bioorg Med Chem, 2019)
≈ marks a conversion by molar mass, not a printed value.

Experiments:
Assay type in all cases: functional
[1] = system: Mycobacterium tuberculosis; experiment: Antimicrobial activity against Mycobacterium tuberculosis H37Rv ATCC 27294 incubated for 7 days by microplate Alamar blue assay; conditions: H37Rv ATCC 27294, 168 h
[2] = system: Staphylococcus epidermidis; experiment: Antimicrobial activity against methicillin-susceptible Staphylococcus epidermidis ATCC 12228 incubated for 18 to 24 hrs by two-fold serial dilution method
Staphylococcus aureus [3] = experiment: Antimicrobial activity against methicillin-susceptible Staphylococcus aureus ATCC 29213 incubated for 18 to 24 hrs by two-fold serial dilution method
Staphylococcus aureus [4] = experiment: Antimicrobial activity against methicillin-resistant Staphylococcus aureus ATCC 33591 incubated for 18 to 24 hrs by two-fold serial dilution method
Enterococcus faecium = experiment: Antimicrobial activity against Enterococcus faecium ATCC 700221 incubated for 18 to 24 hrs by two-fold serial dilution method
Streptococcus pneumoniae = experiment: Antibacterial activity against Streptococcus pneumoniae ATCC 49619 incubated for 24 hrs; conditions: ATCC 49619, 24 h
Staphylococcus aureus [5] = experiment: Antimicrobial activity against Staphylococcus aureus ATCC 29213 incubated for 24 hrs; conditions: ATCC 29213, 24 h
Pseudomonas aeruginosa [6] = experiment: Antimicrobial activity against Pseudomonas aeruginosa ATCC 27853 incubated for 24 hrs; conditions: ATCC 27853, 24 h
Escherichia coli [7] = experiment: Antimicrobial activity against Escherichia coli ATCC 25922 incubated for 24 hrs; conditions: ATCC 25922, 24 h
Escherichia coli [8] = experiment: Antibacterial activity against Escherichia coli incubated for 18 hrs by CLSI-based broth microdilution method
Pseudomonas aeruginosa [9] = experiment: Antimicrobial activity against Pseudomonas aeruginosa ATCC 19429 incubated for 18 hrs by CLSI-based microbroth dilution method; conditions: ATCC 19429, 18 h
Staphylococcus aureus [10] = experiment: Antimicrobial activity against Staphylococcus aureus ATCC 25923 incubated for 18 hrs by CLSI-based microbroth dilution method; conditions: ATCC 25923, 18 h

Row | SMILES | MIC [1] [µM] | MIC [2] [µg/mL] | MIC (Staphylococcus aureus [3]) [µg/mL] | MIC (Staphylococcus aureus [4]) [µg/mL] | MIC (Enterococcus faecium) [µg/mL] | MIC (Escherichia coli [8]) [µg/mL] | MIC (Pseudomonas aeruginosa [9]) [µg/mL] | MIC (Staphylococcus aureus [10]) [µg/mL] | further results
1 | COc1c(N2CCN(C/C(C)=N/Nc3ccncc3)CC2)c(F)cc2c(=O)c(C(=O)O)cn(C3CC3)c12 | 1.78 (≈ 0.905 µg/mL) | 2 (≈ 3.93 µM) | 2 (≈ 3.93 µM) | 2 (≈ 3.93 µM) | > 64 |  |  |  | 
2 | COc1c(N2CCN(C/C(C)=N/Nc3ccnc4cc(Cl)ccc34)CC2)c(F)cc2c(=O)c(C(=O)O)cn(C3CC3)c12 | 0.266 (≈ 0.158 µg/mL) | 1 (≈ 1.69 µM) | 0.5 (≈ 0.843 µM) | 0.5 (≈ 0.843 µM) | > 128 |  |  |  | 
3 | CCn1cc(C(=O)O)c(=O)c2cc(F)c(N3CCN(C/C(=N\N)c4ccccc4)CC3)cc21 |  |  |  |  |  |  |  |  | MIC (Streptococcus pneumoniae): 50 µg/mL (≈ 111 µM); MIC (Staphylococcus aureus [5]): 25 µg/mL (≈ 55.4 µM); MIC (Pseudomonas aeruginosa [6]): 100 µg/mL (≈ 221 µM); MIC (Escherichia coli [7]): 12.5 µg/mL (≈ 27.7 µM)
4 | COc1c(N2CCN(C/C(C)=N/Nc3nc4ccccc4[nH]3)CC2)c(F)cc2c(=O)c(C(=O)O)cn(C3CC3)c12 | 0.434 (≈ 0.238 µg/mL) | 1 (≈ 1.83 µM) | 1 (≈ 1.83 µM) | 1 (≈ 1.83 µM) | 128 (≈ 234 µM) |  |  |  | 
5 | CCCCCCn1cc(C(=O)O)c(=O)c2cc(F)c(N3CCNCC3)cc21.Cl |  |  |  |  |  | 64 | > 128 | > 128 | 
6 | COc1ccc(/C(CN2CCN(c3cc4c(cc3F)c(=O)c(C(=O)O)cn4C3CC3)CC2)=N\O)cc1 |  |  |  |  |  |  |  |  | MIC (Streptococcus pneumoniae): 50 µg/mL (≈ 101 µM); MIC (Staphylococcus aureus [5]): 6.25 µg/mL (≈ 12.6 µM); MIC (Pseudomonas aeruginosa [6]): 100 µg/mL (≈ 202 µM); MIC (Escherichia coli [7]): 12.5 µg/mL (≈ 25.3 µM)
7 | CCn1cc(C(=O)O)c(=O)c2cc(F)c(N3CCN(C/C(=N/NC(N)=O)c4ccccc4)CC3)cc21 |  |  |  |  |  |  |  |  | MIC (Streptococcus pneumoniae): 100 µg/mL (≈ 202 µM); MIC (Staphylococcus aureus [5]): 12.5 µg/mL (≈ 25.3 µM); MIC (Pseudomonas aeruginosa [6]): 100 µg/mL (≈ 202 µM); MIC (Escherichia coli [7]): 25 µg/mL (≈ 50.6 µM)
8 | CCN(CC)c1cc2c(cc1F)c(=O)c(C(=O)O)cn2CC |  |  |  |  |  | 8 (≈ 26.1 µM) | > 128 | 4 (≈ 13.1 µM) | 
9 | CCn1cc(C(=O)O)c(=O)c2cc(F)c(N3CCN(C/C(=N/N)c4ccc([N+](=O)[O-])cc4)CC3)cc21 |  |  |  |  |  |  |  |  | MIC (Streptococcus pneumoniae): 25 µg/mL (≈ 50.4 µM); MIC (Staphylococcus aureus [5]): 12.5 µg/mL (≈ 25.2 µM); MIC (Pseudomonas aeruginosa [6]): 50 µg/mL (≈ 101 µM); MIC (Escherichia coli [7]): 12.5 µg/mL (≈ 25.2 µM)
10 | O=C(O)c1cn(C2CC2)c2cc(N3CCCCCC3)c(F)cc2c1=O |  |  |  |  |  | 2 (≈ 5.81 µM) | > 128 | 0.25 (≈ 0.726 µM) | 
11 | COc1c(N2CCN(C/C(C)=N/Nc3ccccc3)CC2)c(F)cc2c(=O)c(C(=O)O)cn(C3CC3)c12 | 0.398 (≈ 0.202 µg/mL) | 0.25 (≈ 0.493 µM) | 0.25 (≈ 0.493 µM) | 0.25 (≈ 0.493 µM) | 64 (≈ 126 µM) |  |  |  | 
12 | CC(C)n1cc(C(=O)O)c(=O)c2cc(F)c(N3CCNCC3)cc21.Cl |  |  |  |  |  | 0.5 | 4 | 8 | 
13 | Cl.Cn1cc(C(=O)O)c(=O)c2cc(F)c(N3CCNCC3)cc21 |  |  |  |  |  | 0.25 | 2 | 8 | 
14 | COc1c(N2CCN(C/C(C)=N/Nc3ccc(Cl)cc3)CC2)c(F)cc2c(=O)c(C(=O)O)cn(C3CC3)c12 | 0.433 (≈ 0.235 µg/mL) | 0.125 (≈ 0.231 µM) | 0.06 (≈ 0.111 µM) | 0.06 (≈ 0.111 µM) | 64 (≈ 118 µM) |  |  |  | 
15 | CCn1cc(C(=O)O)c(=O)c2cc(F)c(N(C)C)cc21 |  |  |  |  |  | 2 (≈ 7.19 µM) | 64 (≈ 230 µM) | 0.5 (≈ 1.8 µM) | 
16 | CCn1cc(C(=O)O)c(=O)c2cc(F)c(N3CCCCCC3)cc21 |  |  |  |  |  | 16 (≈ 48.1 µM) | > 128 | 0.5 (≈ 1.5 µM) | 
17 | COc1c(N2CCN(C/C(C)=N/Nc3ccc(F)cc3)CC2)c(F)cc2c(=O)c(C(=O)O)cn(C3CC3)c12 | 0.215 (≈ 0.113 µg/mL) | 0.125 (≈ 0.238 µM) | 0.125 (≈ 0.238 µM) | 0.125 (≈ 0.238 µM) | 32 (≈ 60.9 µM) |  |  |  | 
18 | CCn1cc(C(=O)O)c(=O)c2cc(F)c(N3CCN(C/C(=N\Nc4ccccc4)c4ccccc4)CC3)cc21 |  |  |  |  |  |  |  |  | MIC (Streptococcus pneumoniae): 100 µg/mL (≈ 190 µM); MIC (Staphylococcus aureus [5]): 50 µg/mL (≈ 94.8 µM); MIC (Pseudomonas aeruginosa [6]): 100 µg/mL (≈ 190 µM); MIC (Escherichia coli [7]): 25 µg/mL (≈ 47.4 µM)
19 | CCn1cc(C(=O)O)c(=O)c2cc(F)c(N3CCN(C/C(=N/OC)c4ccccc4)CC3)cc21 |  |  |  |  |  |  |  |  | MIC (Streptococcus pneumoniae): > 100 µg/mL; MIC (Staphylococcus aureus [5]): 50 µg/mL (≈ 107 µM); MIC (Pseudomonas aeruginosa [6]): > 100 µg/mL; MIC (Escherichia coli [7]): 50 µg/mL (≈ 107 µM)
20 | COc1c(N2CCN(C/C(C)=N/NC(=O)c3ccccc3)CC2)c(F)cc2c(=O)c(C(=O)O)cn(C3CC3)c12 | 0.226 (≈ 0.121 µg/mL) | 0.125 (≈ 0.233 µM) | 0.125 (≈ 0.233 µM) | 0.125 (≈ 0.233 µM) | > 128 |  |  |  | 
21 | COc1ccc(Cn2cc(C(=O)O)c(=O)c3cc(F)c(N4CCNCC4)cc32)cc1.Cl |  |  |  |  |  | 128 | > 128 | 64 | 
22 | CCN(CC)c1cc2c(cc1F)c(=O)c(C(=O)O)cn2C1CC1 |  |  |  |  |  | 1 (≈ 3.14 µM) | 32 (≈ 101 µM) | 0.5 (≈ 1.57 µM) | 
23 | CN(C)c1cc2c(cc1F)c(=O)c(C(=O)O)cn2C1CC1 |  |  |  |  |  |  | 8 (≈ 27.6 µM) | 125 (≈ 431 µM) | 
24 | COc1c(N2CCN(CCCn3cc([N+](=O)[O-])nc3C)CC2)c(F)cc2c(=O)c(C(=O)O)cn(C3CC3)c12 | 60.3 (≈ 31.9 µg/mL) | 32 (≈ 60.5 µM) | 32 (≈ 60.5 µM) | 32 (≈ 60.5 µM) | > 64 |  |  |  | 
25 | COc1c(N2CCN(CCn3ccnn3)CC2)c(F)cc2c(=O)c(C(=O)O)cn(C3CC3)c12 | 14.2 (≈ 6.48 µg/mL) | 4 (≈ 8.76 µM) | 4 (≈ 8.76 µM) | 4 (≈ 8.76 µM) | > 128 |  |  |  | 
26 | COc1c(N2CCN(CCn3cncn3)CC2)c(F)cc2c(=O)c(C(=O)O)cn(C3CC3)c12 | 4.1 (≈ 1.87 µg/mL) | 4 (≈ 8.76 µM) | 4 (≈ 8.76 µM) | 4 (≈ 8.76 µM) | > 128 |  |  |  | 
